Measurements: patent publication US7208517B1, “Endothelin antagonists” (Abbott Labortories, priority 1994, dated 2007)

What follows are molecules tested against T1, ETA Receptor (Rattus norvegicus, UniProt P26684) (assay: [125I]ET-1 binding to membranes from MMQ cells (ETA receptor binding assay, Table 4)). Settings: test compound at 1 μM; 0.1 nM [125I]ET-1, MMQ cell membranes, 4 hours at 25° C.
T1 construct: endogenous in cells; host or cells: MMQ rat pituitary cells (membranes)
T1 sequence (P26684 21-426): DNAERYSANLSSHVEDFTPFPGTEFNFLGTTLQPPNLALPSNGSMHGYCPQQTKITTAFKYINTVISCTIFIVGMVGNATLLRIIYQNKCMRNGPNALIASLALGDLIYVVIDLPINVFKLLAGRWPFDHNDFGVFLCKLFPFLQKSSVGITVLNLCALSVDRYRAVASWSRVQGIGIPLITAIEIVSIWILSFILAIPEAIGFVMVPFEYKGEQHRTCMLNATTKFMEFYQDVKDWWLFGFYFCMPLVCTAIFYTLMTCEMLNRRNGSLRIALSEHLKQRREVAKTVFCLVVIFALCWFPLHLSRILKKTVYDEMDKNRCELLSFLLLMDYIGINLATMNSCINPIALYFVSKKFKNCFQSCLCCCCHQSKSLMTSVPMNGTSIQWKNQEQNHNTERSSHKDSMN

Molecule | % Inhibition of ETA at 1 μM [%]
CCCN(CCN1CC(c2ccc3c(c2)OCO3)C(C(=O)O)C1c1ccc(OC)cc1)S(=O)(=O)c1ccc(C)cc1C (stereo not drawn) [Example 123, trans,trans-1-(2-(N-Propyl-N-(2,4-dimethylbenzenesulfonyl)amino)ethyl)-2-(4-methoxyphenyl)-4-(1,3-benzodioxol-5-yl)pyrrolidine-3-carboxylic acid] | 89.7
CCCN(C)C(=O)CN1CC(c2ccc(F)c(F)c2)C(C(=O)O)C1c1ccc(OC)cc1 (stereo not drawn) [Example 144, trans,trans-1-(N-Methyl-N-propylaminocarbonylmethyl)-2-(4-methoxyphenyl)-4-(3,4-difluorophenyl)pyrrolidine-3-carboxylic acid] | 78.2
CCCCCC1C(C(=O)O)C(c2ccc3c(c2)OCO3)CN1CCN(CCC)S(=O)(=O)CCC (stereo not drawn) [Example 93C, trans,trans-2-(Pentyl)-4-(1,3-benzodioxol-5-yl)-1-[2-(N-propyl-N-propylsulfonylamino)ethyl]pyrrolidine-3-carboxylic acid] | 59.2
COc1ccc(C2C(C(=O)O)C(c3ccc4c(c3)OCO4)CN2CCN(C)C(=O)C(C)C)cc1 (stereo not drawn) [Example 61C, trans,trans-2-(4-Methoxyphenyl)-4-(1,3-benzodioxol-5-yl)-1-(2-(N-methyl-N-isobutyrylamino)ethyl)-pyrrolidine-3-carboxylic acid] | 90.6
CCCN(CCN1CC(c2ccc3c(c2)OCO3)C(C(=O)O)C1c1ccc(OC)cc1)C(=O)OCC(C)C (stereo not drawn) [Example 295, trans—trans-2-(4-Methoxyphenyl)-4-(1,3-benzodioxol-5-yl)-1-[2-(N-propyl-N-iso-butoxycarbonylamino)ethyl]-pyrrolidine-3-carboxylic acid] | 93.0
(2R,3R,4S)-(+)-2-(4-Methoxyphenyl)-4-(1,3-benzodioxol-5-yl)-1-(tert-butyloxycarbonyl-aminocarbonylmethyl)-pyrrolidine-3-carboxylic acid [Example 95D] | 82.1
CCCC#CCN1CC(c2ccc3c(c2)OCO3)C(C(=O)O)C1c1ccc(OC)cc1 (stereo not drawn) [Example 37, trans,trans-2-(4-Methoxyphenyl)-4-(1,3-benzodioxol-5-yl)-1-(2-hexynyl)-pyrrolidine-3-carboxylic acid] | 47.9
CCCCN(CCCC)C(=O)CN1CC(c2ccc3c(c2)OCO3)C(C(=O)O)C1c1cccnc1 (stereo not drawn) [Example 130, trans,trans-1-(N,N-Di(n-butyl)aminocarbonylmethyl)-2-(3-pyridyl)-4-(1,3-benzodioxol-5-yl)pyrrolidine-3-carboxylic acid] | 91.0
CCCN(CCN1CC(c2ccc3c(c2)OCO3)C(C(=O)O)C1c1ccc(OC)cc1)S(=O)(=O)CC (stereo not drawn) [Example 128, trans,trans-1-(2-(N-Propyl-N-(ethylsulfonyl)amino)ethyl)-2-(4-methoxyphenyl)-4-(1,3-benzodioxol-5-yl)pyrrolidine-3-carboxylic acid] | 95.4
CCCN(C)C(=O)CN1CC(c2ccc(OC)c(OC)c2)C(C(=O)O)C1c1ccc(OC)cc1 (stereo not drawn) [Example 54, trans,trans-2-(4-Methoxyphenyl)-4-(3,4-dimethoxyphenyl)-1-(N-methyl-N-propyl)aminocarbonylmethyl)-pyrrolidine-3-carboxylic acid] | 64.6
CCCCNC(=O)N1CC(c2ccc3c(c2)OCO3)C(C(=O)O)C1c1ccc(OC)cc1 (stereo not drawn) [Example 9, trans,trans-2-(4-Methoxyphenyl)-4-(1,3-benzodioxole-5-yl)-1-(butylaminocarbonyl)-pyrrolidine-3-carboxylic acid] | 69.2

Further lines, results first:

% Inhibition of ETA at 1 μM [%] | Molecule
93.6 | CCCCN(CCCC)C(=O)CN1CC(c2ccc3c(c2)OCO3)C(C(=O)O)C1[C@H]1CC[C@H](OC)CC1 (stereo partly drawn) [Example 161, trans,trans-1-(N,N-Di(n-butyl)aminocarbonylmethyl)-2-(syn-4-methoxycyclohexyl)-4-(1,3-benzodioxol-5-yl)pyrrolidine-3-carboxylic acid]
87.1 | CCCCCS(=O)(=O)N(CC)CCN1CC(c2ccc3c(c2)OCO3)C(C(=O)O)C1c1ccc(OC)cc1 (stereo not drawn) [Example 310, trans,trans-2-(4-Methoxyphenyl)-4-(1,3-benzodioxol-5-yl)-1-(2-(N-ethyl-N-n-pentanesulfonylamino)ethyl)-pyrrolidine-3-carboxylic acid]
83.8 | CCCCN(CCCC)C(=O)CN1CC(c2ccc3c(c2)OCO3)C(C(=O)O)C1C(C)C (stereo not drawn) [Example 157, trans,trans-1-(N,N-Di(n-butyl)aminocarbonylmethyl)-2-(isopropyl)-4-(1,3-benzodioxol-5-yl)pyrrolidine-3-carboxylic acid]
97.1 | CCCCN(CCCC)C(=O)CN1CC(c2ccc3c(c2)CCO3)C(C(=O)O)C1c1ccccc1 (stereo not drawn) [Example 153, trans,trans-1-(N,N-Di(n-butyl)aminocarbonylmethyl)-2-phenyl-4-(5-benzo-2,3-dihydrofuranyl)pyrrolidine-3-carboxylic acid]
98.6 | CCCCN(CCCC)C(=O)CN1CC(c2cccc(F)c2)C(C(=O)O)C1c1ccc(OC)cc1 (stereo not drawn) [Example 164, trans,trans-1-(N,N-Di(n-butyl)aminocarbonylmethyl)-2-(4-methoxyphenyl)-4-(3-fluorophenyl)pyrrolidine-3-carboxylic acid]
86.6 | CCC1CCCCN1C(=O)CN1CC(c2ccc3c(c2)OCO3)C(C(=O)O)C1c1ccc(OC)cc1 (stereo not drawn) [Example 302, trans—trans-2-(4-Methoxyphenyl)-4-(1,3-benzodioxol-5-yl)-1-[2-ethylpiperidinyl-carbonylmethyl]-pyrrolidine-3-carboxylic acid]
96.7 | C=C(C)CS(=O)(=O)N(CCC)CCN1CC(c2ccc3c(c2)OCO3)C(C(=O)O)C1c1ccc(OC)cc1 (stereo not drawn) [Example 301, trans,trans-2-(4-Methoxyphenyl)-4-(1,3-benzodioxol-5-yl)-1-(2-(N-propyl-N-(2-methyl-2-propenesulfonyl)amino)ethyl)-pyrrolidine-3-carboxylic acid]
0 | CC(C)OCCOc1ccc(C2C(C(=O)O)C(c3ccc4c(c3)OCO4)CN2CC(=O)NN(c2ccccc2)C(C)(C)C)cc1 (stereo not drawn) [Example 560, trans,trans-2-(4-(2-(2-Propoxy)ethoxy)phenyl)-4-(1,3-benzodioxol-5-yl)-1-N-phenyl-N-t-butylhydrazino carbonylmethyl)-pyrrolidine-3-carboxylic acid]
90.6 | CCCCN(CCCC)C(=O)CN1CC(c2ccc3c(c2)CCO3)C(C(=O)O)C1c1ccoc1 (stereo not drawn) [Example 163, trans,trans-1-(N,N-Di(n-butyl)aminocarbonylmethyl)-2-(3-furyl)-4-(5-benzo-2,3-dihydrofuranyl)pyrrolidine-3-carboxylic acid]
0 | COCCOc1ccc(C2C(C(=O)O)C(c3ccc4c(c3)OCO4)CN2CC(=O)NN(c2ccccc2)C(C)(C)C)cc1 (stereo not drawn) [Example 561, trans,trans-2-(4-(2-Methoxyethoxy)phenyl)-4-(1,3-benzodioxol-5-yl)-1-(N-phenyl-N-t-butylhydrazinocarbonylmethyl)-pyrrolidine-3-carboxylic acid]
